Experimental findings from ChEMBL document CHEMBL3120155, “4,4'-Diaminodiphenyl ether derivatives: synthesis, spectral, optical, thermal characterization and in-vitro cytotoxicity against Hep 3B and IMR 32 human cell lines” (Eur J Med Chem, 2014) are described below.

In brackets after ≈: the same amount, converted by molar mass. Activity calls are given as the source filed them. The rule behind the calls is not given here.

Experiment [1] is described as follows: Cytotoxicity against human Hep3B cells after 6 hrs by MTT assay. In kind it is functional, cell-based, Hep 3B2. (In general: Formazan colour is commonly taken as a measure of viable cells.)
Experiment [2] can be described thus: Cytotoxicity against human IMR32 cells after 6 hrs by MTT assay. The following applies: IMR-32, 6 h. In kind it is functional, cell-based.
Experiment [3] concerns IMR-32. Briefly: Induction of apoptosis in human IMR32 cells assessed as DNA fragmentation at IC50 after 6 hrs by agarose gel electrophoresis. In kind it is functional, cell-based.
For experiment [4], the system named is Hep 3B2. Briefly: Induction of apoptosis in human Hep3B cells assessed as DNA fragmentation at IC50 after 6 hrs by agarose gel electrophoresis. In kind it is functional, cell-based.
The subject of experiment [5] is IMR-32. Briefly: Induction of apoptosis in human IMR32 cells assessed as cell shrinkage at IC50 after 6 hrs by microscopic analysis. In kind it is functional, cell-based.
The subject of experiment [6] is Hep 3B2. Nature of the experiment: Induction of apoptosis in human Hep3B cells assessed as cell shrinkage at IC50 after 6 hrs by microscopic analysis. In kind it is functional, cell-based.

As usually defined, the IC50 is the concentration needed to halve the response being measured. A high value points to weaker potency. Regarding `c1ccc2c(CNc3ccc(Oc4ccc(NCc5cccc6ccccc56)cc4)cc3)cccc2c1`, the half-maximal inhibitory concentration (IC50) in experiment [1] and in experiment [2] was 89.1 µg/mL (≈ 185 µM) each time.
Take `c1ccc2c(CNc3ccc(Oc4ccc(NCc5c6ccccc6cc6ccccc56)cc4)cc3)c3ccccc3cc2c1`: the IC50 in experiment [1] was 50.1 µg/mL (≈ 86.3 µM); in experiment [2], 65 µg/mL (≈ 112 µM).
Take `Nc1ccc(Oc2ccc(N)cc2)cc1`: the IC50 in experiment [1] was determined as 83.2 µg/mL (≈ 415 µM); in experiment [2] it was 54.5 µg/mL (≈ 272 µM).
Turning to `c1ccc(CNc2ccc(Oc3ccc(NCc4ccccc4)cc3)cc2)cc1`, the outcome in the experiment with IMR-32 [3] and in the experiment on Hep 3B2 [4] was Active. The concentration for half-maximal inhibition (IC50) in experiment [1] was found to be 28.2 µg/mL (≈ 74.1 µM); in experiment [2], 31.9 µg/mL (≈ 83.9 µM).
In the case of `C(=N\c1ccc(Oc2ccc(/N=C/c3ccccc3)cc2)cc1)/c1ccccc1`, the IC50 in experiment [1] was 29.8 µg/mL (≈ 79.3 µM); in experiment [2], 42.9 µg/mL (≈ 114 µM).
For `C(=N\c1ccc(Oc2ccc(/N=C/c3cccc4ccccc34)cc2)cc1)/c1cccc2ccccc12`, the outcome in the experiment on IMR-32 [3], with Hep 3B2 [4], with IMR-32 [5] and with Hep 3B2 [6] was Active. The IC50 in experiment [1] amounted to 14.1 µg/mL (≈ 29.6 µM); in experiment [2] it was 33.5 µg/mL (≈ 70.3 µM).
As to `C(=N\c1ccc(Oc2ccc(/N=C/c3cc4ccccc4c4ccccc34)cc2)cc1)/c1cc2ccccc2c2ccccc12`, the IC50 came to 44.7 µg/mL (≈ 77.5 µM) in experiment [1] and 63.1 µg/mL (≈ 109 µM) in experiment [2].
Consider `C(=N\c1ccc(Oc2ccc(/N=C/c3c4ccccc4cc4ccccc34)cc2)cc1)/c1c2ccccc2cc2ccccc12`, for which the half-maximal inhibitory concentration (IC50) came out at 59.6 µg/mL (≈ 103 µM) in experiment [1] and 50.3 µg/mL (≈ 87.3 µM) in experiment [2].
